# Paper PMC4102931 (Investigational new drugs, 2010)
# Like-named read-outs stand apart in the source and are kept apart here. Marks after values point to notes of the source that are not given here.
# Legend:
# [1] = human, in vivo
# clinical = settings: human, in vivo
# [2] = Chemotherapy pharmacokinetics alone; settings: for Change in the geometric mean chemotherapy pharmacokinetic parameters when given alone or in combination with cediranib: limited pharmacokinetic data; for AUC / Cmax: alone (cycle 1, day 1), geometric mean (CV%)
# [3] = ref Trial 2171IL0001, cited from earlier work; for Tmax: median (range)
# [4] = tested on: patients with a broad range of advanced solid tumors; settings: cited from earlier work
# [5] = tested on: patients with advanced solid tumors; assay: Safety and tolerability: adverse events graded by NCI CTC version 3.0; assay type: in vivo, human
# [6] = Steady-state pharmacokinetics of cediranib given with chemotherapy; assay type: in vivo, human; settings: for Css,max / AUC: geometric mean (CV%); for AUC / Tmax: human, plasma, oral; for AUC: AUCss; for Tmax: median (range)
# [7] = tested on: patients with advanced CRC; settings: previous phase I study; cited from earlier work
# [8] = tested on: patients with advanced solid tumors; assay: Dose-limiting toxicities and maximum tolerated dose; assay type: in vivo, human; settings: for MTD of cediranib: once-daily oral
# advanced solid tumors = assay: Tumor response evaluation; assay type: in vivo, human
# [9] = all arms, cediranib with chemotherapy
# [10] = 20 mg, Arm 1 (with mFOLFOX6), cediranib 20 mg, n=5
# [11] = 20 mg, Arm 3A (with irinotecan), cediranib 20 mg, n=5
# [12] = 20 mg, Arm 3B (with irinotecan and cetuximab), cediranib 20 mg, n=3
# [13] = 30 mg, Arm 2 (with docetaxel), cediranib 30 mg, n=8
smiles,measurement,setting,value
O=c1[nH]cc(F)c(=O)[nH]1 [5-FU],Cmax,[1],544 (72.9) ng/mL
CC(=O)O[C@@]12CO[C@@H]1C[C@H](O)[C@@]1(C)C(=O)[C@H](O)C3=C(C)[C@@H](OC(=O)[C@H](O)[C@@H](NC(=O)OC(C)(C)C)c4ccccc4)C[C@@](O)([C@@H](OC(=O)c4ccccc4)[C@H]21)C3(C)C [Docetaxel],AUC,clinical; AUC,3770 ng·h/mL
CCc1c2c(nc3ccc(OC(=O)N4CCC(N5CCCCC5)CC4)cc13)-c1cc3c(c(=O)n1C2)COC(=O)[C@]3(O)CC [Irinotecan],Cmax,[1],3040 (18.3) ng/mL
same,Cmax,clinical; Cmax,3290 ng/mL
"O=C1[O][Pt]2([NH][C@@H]3CCCC[C@H]3[NH]2)[O]C1=O [Oxaliplatin, reference compound]",Change in the geometric mean chemotherapy pharmacokinetic parameters when given alone or in combination with cediranib,[2],< 2 fold
Nc1nc2[nH]cc(CCc3ccc(C(=O)N[C@@H](CCC(=O)O)C(=O)O)cc3)c2c(=O)[nH]1 [Pemetrexed],AUC,[1],295 (37.7)^e u.g.h/mL
same,Cmax,[1],180 (14.2)^e u.g/mL
CCc1c2c(nc3ccc(O)cc13)-c1cc3c(c(=O)n1C2)COC(=O)[C@]3(O)CC [SN38],AUC,[2]; Arm 3A,595 (53.5) ng/mL•h
same,Cmax,[2]; Arm 3A,35.4 (50.1) ng/mL
same,AUC,[2]; Arm 3B (with cetuximab),482 (22.3) ng/mL•h
same,Cmax,[2]; Arm 3B (with cetuximab),29.1 (21.0) ng/mL
same,Change in the geometric mean chemotherapy pharmacokinetic parameters when given alone or in combination with cediranib,[2],< 2 fold
"COc1cc2c(Oc3ccc4[nH]c(C)cc4c3F)ncnc2cc1OCCCN1CCCC1 [cediranib, Cediranib]","Css,max","[3]; single-agent cediranib 20 mg, multiple once-daily oral doses, n=11, geometric mean (CV%)",66.6 (52.9) ng/mL
same,AUCss,"[3]; single-agent cediranib 20 mg, n=11, geometric mean (CV%)",774 (51.6) ng/mL•h
same,Tmax,"[3]; single-agent cediranib 20 mg, n=11","3.0 (2.0, 6.4) h"
same,AUCss,"[3]; single-agent cediranib 30 mg, n=12, geometric mean (CV%)",741 (48.7) ng/mL•h
same,Tmax,"[3]; single-agent cediranib 30 mg, n=12","2.1 (1.0, 4.0) h"
same,Doses at which cediranib monotherapy was generally well tolerated,[4],≤ 45 mg/day
same,Serious adverse events of hypertension,[5]; across all arms,Three
same,CTC grade 1 hypertension,"[5]; across all arms, n=59",21 patients
same,CTC grade 3 hypertension,"[5]; across all arms, n=59",three
same,CTC grade 3 leukopenia,"[5]; across all arms, n=59",nine
same,CTC grade 3 neutropenia,"[5]; across all arms, n=59",11 patients
same,CTC grade 3 or 4 diarrhea of any causality,"[5]; across all arms, n=59",12 patients
same,CTC grade 3 or 4 fatigue of any causality,"[5]; across all arms, n=59",16 patients
same,CTC grade 3 or 4 leukopenia of any causality,"[5]; across all arms, n=59",13 patients
same,CTC grade 3 or 4 neutropenia of any causality,"[5]; across all arms, n=59",19 patients
same,CTC grade 4 leukopenia,"[5]; across all arms, n=59",four
same,CTC grade 4 neutropenia,"[5]; across all arms, n=59",8 patients
same,Serious adverse event: fatigue,"[5]; across all arms, number (%)",16 (27%) patients
same,Serious adverse event: leukopenia,"[5]; across all arms, number (%)",12 (20%) patients
same,Serious adverse event: neutropenia,"[5]; across all arms, number (%)",18 (30%) patients
same,Patients discontinued due to diarrhea,[5]; across the study,three
same,Patients discontinued due to fatigue,[5]; across the study,two
same,"Abdominal pain, any grade (%), Total (n=59)",[5]; [9],16 (27%)
same,"Alopecia, any grade (%), Total (n=59)",[5]; [9],15 (25%)
same,"Anorexia, any grade (%), Total (n=59)",[5]; [9],25 (42%)
same,"Decreased weight, any grade (%), Total (n=59)",[5]; [9],21 (36%)
same,"Dehydration, any grade (%), Total (n=59)",[5]; [9],19 (32%)
same,"Dyspnea, any grade (%), Total (n=59)",[5]; [9],18 (31%)
same,"Headache, any grade (%), Total (n=59)",[5]; [9],16 (27%)
same,"Leukopenia, any grade (%), Total (n=59)",[5]; [9],20 (34%)
same,"Nausea, any grade (%), Total (n=59)",[5]; [9],36 (61%)
same,"Neutropenia, any grade (%), Total (n=59)",[5]; [9],27 (46%)
same,"Vomiting, any grade (%), Total (n=59)",[5]; [9],30 (51%)
same,Adverse events of proteinuria (all CTC grade 1 or 2),[5]; all study arms except arm 4,Seven
same,Increases in blood TSH above the normal range (> 5 mU/L),[5]; overall,26 patients
same,Neutrophil counts of less than 1×10^9/L,"[5]; overall, n=59",Fourteen
same,Patients discontinuing due to adverse events,"[5]; total, number (%)",12 (20%) patients
same,"Css,max","[6]; Arm 1 (with mFOLFOX6), cediranib 20 mg, n=5",65.3 (86.2) ng/mL
same,"Css,max","[6]; Arm 2 (with docetaxel), cediranib 30 mg, n=8",62.5 (53.3) ng/mL
same,"Css,max","[6]; Arm 3A (with irinotecan), cediranib 20 mg, n=5",76.0 (57.6) ng/mL
same,"Css,max","[6]; Arm 3B (with irinotecan and cetuximab), cediranib 20 mg, n=3",50.9 (126) ng/mL
same,"Css,max","[6]; Arm 4 (with pemetrexed), cediranib 30 mg, n=4",74.9 (31.6) ng/mL
same,AUC,[6]; [10],986 ng·h/mL
same,AUC,[6]; [11],1010 ng·h/mL
same,AUC,[6]; [12],668 ng·h/mL
same,Tmax,[6]; [10],4 h
same,Tmax,[6]; [11],2.1 h
same,Tmax,[6]; [12],4 h
same,AUC,[6]; [13],1100 ng·h/mL
same,Tmax,[6]; [13],5 h
same,Recommended phase II dose in combination with mFOLFOX6,[7],30 mg/day
same,MTD of cediranib,[8]; in combination with docetaxel (arm 2),30 mg
same,MTD of cediranib according to the protocol definition,[8]; in combination with irinotecan and cetuximab,20 mg
same,MTD of cediranib,[8]; in combination with irinotecan,20 mg
same,MTD of cediranib,[8]; in combination with mFOLFOX6,20 mg
same,MTD of cediranib,[8]; in combination with pemetrexed (arm 4),30 mg
same,"Partial tumor responses, all arms","advanced solid tumors; 46 patients with efficacy data, 35 evaluable by RECIST",four
same,Median duration of treatment of the four patients with partial response,advanced solid tumors; range 154-384,319 days
